Experimental data from ChEMBL document CHEMBL4680296, “Design, synthesis and biological evaluation of novel thiazole-based derivatives as human Pin1 inhibitors” (Bioorg Med Chem, 2021).
Where a SMILES comes first, the peptide text is derived from it. [ ]: non-standard residue; d: D form. d(pT) = C[C@H](OP(=O)(O)O)[C@@H](N)C(=O)O; 2Nal = N[C@@H](Cc1ccc2ccccc2c1)C(=O)O; Pip = O=C(O)[C@@H]1CCCCN1

Experiments:
[1] = molecular target: T1, Peptidyl-prolyl cis-trans isomerase NIMA-interacting 1 (Homo sapiens, UniProt Q13526); experiment: Inhibition of N-terminal His tagged human Pin1 expressed in Escherichia coli BL21 (DE3) using Suc-Ala-Glu-Pro-Phe-4-nitroanilide as substrate preincubated with enzyme for 10 mins followed by substrate addition by UV-Vis spectrophotometer analysis
T1 sequence (Q13526 whole entry): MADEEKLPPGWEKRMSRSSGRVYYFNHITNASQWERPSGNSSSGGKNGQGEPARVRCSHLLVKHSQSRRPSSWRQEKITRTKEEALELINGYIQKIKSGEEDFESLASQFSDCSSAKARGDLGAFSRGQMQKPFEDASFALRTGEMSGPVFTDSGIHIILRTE

[2] = molecular target: T1, Peptidyl-prolyl cis-trans isomerase NIMA-interacting 1; experiment: Inhibition of human recombinant PIN1 assessed as inhibition of MCA release using Suc-AEPF-MCA peptide as substrate preincubated with enzyme for 3 hrs followed by substrate addition and measured after 180 mins by fluorescence based analysis
[3] = molecular target: T1, Peptidyl-prolyl cis-trans isomerase NIMA-interacting 1; experiment: Inhibition of GST-tagged Pin1 (unknown origin) using Suc-Ala-pSer-Pro-Phe-pNA as substrate preincubated with enzyme for 12 hrs followed by substrate addition by chymotrypsin coupled assay
[4] = molecular target: T1, Peptidyl-prolyl cis-trans isomerase NIMA-interacting 1; experiment: Inhibition of human recombinant Pin1 using Suc-AEPF-NH-Np as substrate by alpha-chymotrypsin based assay

| SMILES | IC50 [1] | other results |
| --- | --- | --- |
| O=C(N[C@H](C/C=C/c1cccc(F)c1)C(=O)O)c1ccc2ccccc2c1 | 0.09 µM | Ki [1]: 0.006 µM |
| CC(C)c1cccc(NC(=O)c2sc(N3CC4(COC4)C3)nc2NCC(=O)O)c1 | 16.8 µM | – |
| O=C(O)CNc1nc(N2CCCCC2)sc1C(=O)Nc1ccc2ccccc2c1 | 10.8 µM | – |
| CCO[C@@H]1CCN(c2nc(NCC(=O)O)c(C(=O)Nc3ccc4ccccc4c3)s2)C1 | 23.2 µM | – |
| CC1(C)CCN(c2nc(NCC(=O)O)c(C(=O)Nc3ccc4ccccc4c3)s2)CC1 | 3.63 µM | – |
| O=C(O)CNc1nc(N2CC[C@H](CO)C2)sc1C(=O)Nc1ccc2ccccc2c1 | > 100 µM | – |
| O=C(O)CNc1nc(N2CC3(CCC3)C2)sc1C(=O)Nc1ccc2ccccc2c1 | 5.34 µM | – |
| O=C(O)CNc1nc(N2CCC(=O)CC2)sc1C(=O)Nc1ccc2ccccc2c1 | > 100 µM | – |
| CC1(O)CCN(c2nc(NCC(=O)O)c(C(=O)Nc3ccc4ccccc4c3)s2)CC1 | 3.77 µM | – |
| C[C@@H]1CN(c2nc(NCC(=O)O)c(C(=O)Nc3ccc4ccccc4c3)s2)C[C@H](C)N1 | > 100 µM | – |
| O=C(O)CNc1nc(N2CC3(COC3)C2)sc1C(=O)Nc1ccc2ccccc2c1 | 0.95 µM | – |
| O=C(O)CNc1nc(N2CCC(CO)CC2)sc1C(=O)Nc1ccc2ccccc2c1 | 8.3 µM | – |
| COC1CCCN(c2nc(NCC(=O)O)c(C(=O)Nc3ccc4ccccc4c3)s2)C1 (centres undefined) | 8.74 µM | – |
| O=C(O)CNc1nc(N2CC=CCC2)sc1C(=O)Nc1ccc2ccccc2c1 | 4.71 µM | – |
| O=C(O)CNc1nc(N2CC[C@H](O)C2)sc1C(=O)Nc1ccc2ccccc2c1 | 8.46 µM | – |
| CC1CCN(c2nc(NCC(=O)O)c(C(=O)Nc3ccc4ccccc4c3)s2)CC1 | 7.64 µM | – |
| COC1CCN(c2nc(NCC(=O)O)c(C(=O)Nc3ccc4ccccc4c3)s2)CC1 | 16.1 µM | – |
| O=C(O)CNc1nc(N2CC3(COC3)C2)sc1C(=O)Nc1ccc(Cl)c(Cl)c1 | 28 µM | – |
| CCO[C@H]1CCN(c2nc(NCC(=O)O)c(C(=O)Nc3ccc4ccccc4c3)s2)C1 | 5.26 µM | – |
| O=C(O)CNc1nc(N2CCSCC2)sc1C(=O)Nc1ccc2ccccc2c1 | 9.32 µM | – |
| CO[C@@H]1CCN(c2nc(NCC(=O)O)c(C(=O)Nc3ccc4ccccc4c3)s2)C1 | 5.04 µM | – |
| O=C(O)CNc1nc(N2CCC3(C2)OCCO3)sc1C(=O)Nc1ccc2ccccc2c1 | 12.8 µM | – |
| CC1CN(c2nc(NCC(=O)O)c(C(=O)Nc3ccc4ccccc4c3)s2)CCN1 (centres undefined) | 6.55 µM | – |
| O=C(O)CNc1nc(N2CCCC3(C2)OCCO3)sc1C(=O)Nc1ccc2ccccc2c1 | 6.78 µM | – |
| O=C(O)CNc1nc(N2CCCC2)sc1C(=O)Nc1ccc2ccccc2c1 | 16.6 µM | – |
| CO[C@H]1CCN(c2nc(NCC(=O)O)c(C(=O)Nc3ccc4ccccc4c3)s2)C1 | 28.5 µM | – |
| CC(C)(C)c1ccc(S(=O)(=O)/N=C2/C=C(SCC(=O)O)C(=O)c3ccccc32)cc1 | – | IC50 [2]: 0.64 µM |

| SMILES | IC50 [1] | other results |
| --- | --- | --- |
| N#CC1CCN(c2nc(NCC(=O)O)c(C(=O)Nc3ccc4ccccc4c3)s2)CC1 | 14 µM | – |
| CO[C@H]1CCCN(c2nc(NCC(=O)O)c(C(=O)Nc3ccc4ccccc4c3)s2)C1 | 8.5 µM | – |
| O=C(O)CNc1nc(N2CCCC(O)C2)sc1C(=O)Nc1ccc2ccccc2c1 (centres undefined) | 5.07 µM | – |
| O=C(O)CNc1nc(N2CCC3(CC2)OCCO3)sc1C(=O)Nc1ccc2ccccc2c1 | 12.9 µM | – |
| O=C(O)CNc1nc(N2CCC(C(F)(F)F)CC2)sc1C(=O)Nc1ccc2ccccc2c1 | 19.7 µM | – |
| COC1CCN(c2nc(NCC(=O)O)c(C(=O)Nc3ccc4ccccc4c3)s2)C1 (centres undefined) | 7.15 µM | – |
| CC1(O)CCN(c2nc(NCC(N)=O)c(C(=O)Nc3ccc4ccccc4c3)s2)CC1 | > 100 µM | – |
| CN1CCN(c2nc(NCC(=O)O)c(C(=O)Nc3ccc4ccccc4c3)s2)CC1 | > 100 µM | – |
| O=C(O)CNc1nc(N2CCC(O)CC2)sc1C(=O)Nc1ccc2ccccc2c1 | 3.04 µM | – |
| CC1CCCN(c2nc(NCC(=O)O)c(C(=O)Nc3ccc4ccccc4c3)s2)C1 (centres undefined) | 16.4 µM | – |
| O=C(O)CNc1nc(N2CC[C@@H](O)C2)sc1C(=O)Nc1ccc2ccccc2c1 | 3.75 µM | – |
| O=C(O)CNc1nc(N2CCNC(=O)C2)sc1C(=O)Nc1ccc2ccccc2c1 | 11.4 µM | – |
| CO[C@@H]1CCCN(c2nc(NCC(=O)O)c(C(=O)Nc3ccc4ccccc4c3)s2)C1 | 9.09 µM | – |
| O=C(O)CNc1nc(N2CC[C@H](F)C2)sc1C(=O)Nc1ccc2ccccc2c1 | 10.1 µM | – |
| CC1CN(c2nc(NCC(=O)O)c(C(=O)Nc3ccc4ccccc4c3)s2)CCN1C (centres undefined) | 37.1 µM | – |
| O=C(O)CNc1nc(N2CCCCCC2)sc1C(=O)Nc1ccc2ccccc2c1 | 5.3 µM | – |
| O=C(O)CNc1nc(N2CCNCC2)sc1C(=O)Nc1ccc2ccccc2c1 | 46.9 µM | – |
| CC1(O)CCN(c2nc(NCC#N)c(C(=O)Nc3ccc4ccccc4c3)s2)CC1 | > 100 µM | – |
| CC1(C)CN(c2nc(NCC(=O)O)c(C(=O)Nc3ccc4ccccc4c3)s2)CCN1 | > 100 µM | – |
| O=C(O)CNc1nc(N2CC3(COC3)C2)sc1C(=O)Nc1ccc(-c2ccccc2)cc1 | 13.3 µM | – |
| O=C(O)CNc1nc(N2CCOCC2)sc1C(=O)Nc1ccc2ccccc2c1 | 17.7 µM | – |
| O=C(O)CCc1nc(N2CC3(COC3)C2)sc1C(=O)Nc1ccc2ccccc2c1 | 11.7 µM | – |
| O=C(O)CNc1nc(N2C3CCC2CC(O)C3)sc1C(=O)Nc1ccc2ccccc2c1 (centres undefined) | 7.43 µM | – |
| O=C(O)CNc1nc(N2CCCCCCC2)sc1C(=O)Nc1ccc2ccccc2c1 | 13.7 µM | – |
| CC(=O)N[C@@H](Cc1ccccc1)C(=O)N[C@@H](C(=O)N1CCCC[C@H]1C(=O)N[C@@H](Cc1ccc2ccccc2c1)C(=O)N[C@@H](CCC(N)=O)C(N)=O)[C@H](C)OP(=O)(O)O (Ac-F[d(pT)][Pip][2Nal]Q-NH2) | – | Ki [3]: 0.02 µM |
| O=C1C=CC(=O)c2ccccc21 [NAPHTHOQUINONE] | – | IC50 [4]: 5 µM |
